{"source": "patent US10005793B2", "about": "“Bodipy dyes for biological imaging” (The General Hospital Corporation, priority 2012, dated 2018)", "key": {"[1]": {"test_system": "MDA-MB-231 pLVX H2B-mCherry cells", "experiment": "Live cell fluorescence imaging after 24 hours treatment", "assay_type": "cell-based", "details": "24 hours at 10 μM, 1 μM, and 100 nM; FIG. 5", "procedure": "To investigate the impact of dye lipophilicity in the in vivo imaging context, we further treated MD-MBA 231 cells (with an H2B mCherry fluorescent reporter to localize the nucleus) with each compound for 24 hours at 10 μM, 1 μM, and 100 nM. Cells (MDA-MB-231 pLVX H2B-mCherry) lines were cultured using sterile technique in plastic dishes with standard cell-growth media [RPMI 1640 1× (+) phenol red, (+) 10% FBS, (+) 1% Pen-Strep]. Culture incubation during and in between experiments was performed in a sterile incubator (37° C., 5% CO2). All cultures used in imaging studies were confirmed to be mycoplasma-free prior to experimentation using a commercially available detection kit (MycoAlert, Lonza).\nThis property thereby limits non-specific staining effects that could have a confounding effect small-molecule imaging applications."}, "MD-MBA 231 cell line": {"test_system": "MD-MBA 231 cell line", "experiment": "Wash-out experiment, live-cell imaging", "assay_type": "cell-based", "details": "30 minutes incubation with 10 µM compound, three 30 minute washes; FIG. 6", "procedure": "Further validation of the dyes' low-lipophilicity was achieved via a wash-out experiment with the MD-MBA 231 cell line. In this experiment, we investigated the ease of washing out the mono-alkoxy fluorophores within 30 minutes (e.g., within 15 minutes of the start of incubation).\nTwo days prior to imaging, cells were seeded at 20,000 cells/well on a 96-well Glass Bottom Microwell plate (MatriPlate, MGB096-1-2-LG-L) treated with 1× Attachment Factor (0.1% gelatin, Gibco). For these experiments, phenol-red free imaging media was used [RPMI 1640 1× (+) 10% FBS]. The day of imaging, each well was incubated for 30 minutes with […] of the title compound suspended in cell imaging media (final DMSO content=0.1%). Subsequently three washes were performed. Each wash consisted of removing spent media, adding fresh imaging media, and incubating the cells for 30 minutes. After the final wash, the media was aspirated, a thin layer of cell imaging media was added, and wells were rapidly imaged.\nLive-cell imaging was performed on a Zeiss Axiovert 100M inverted epifluorescence microscope with a 40× objective. Per region of interest, a bright field view was acquired as well as GFP, TexasRed fluorescence channels."}}}
{"smiles": "CC1=CC(C)=[N+]2C1=C(C)c1c(C)cc(C)n1[B-]2(F)F", "note": "[AMC1094, 1,3,5,7,8-Pentamethyl BODIPY]", "values": [{"measurement": "staining pattern of live cells", "setting": "[1]", "result": "significant non-specific staining of cellular compartments"}, {"measurement": "staining after wash-out", "setting": "MD-MBA 231 cell line", "result": "persistent non-specific staining"}]}
{"smiles": "CO[B-]1(F)n2c(C)cc(C)c2C(C)=C2C(C)=CC(C)=[N+]21", "note": "(stereo not shown) [AMC1028, 5-fluoro-5-methoxy-1,3,7,9,10-pentamethyl-5H-dipyrrolo[1,2-c:2′,1′-f][1,3,2]diazaborinin-4-ium-5-uide]", "values": [{"measurement": "staining pattern of live cells", "setting": "[1]", "result": "diffuse fluorescent signal"}]}
{"smiles": "CC1=CC(C)=[N+]2C1=C(C)c1c(C)cc(C)n1[B-]2(F)OCCO", "note": "(stereo not shown) [AMC1029, 5-fluoro-5-(2-hydroxyethoxy)-1,3,7,9,10-pentamethyl-5H-dipyrrolo[1,2-c:2′,1′-f][1,3,2]diazaborinin-4-ium-5-uide]", "values": [{"measurement": "staining pattern of live cells", "setting": "[1]", "result": "diffuse fluorescent signal"}]}
